# Earlier results in patent US6800456B2, “Modified forms of hepatitis C NS3 protease for facilitating inhibitor screening and structural studies of protease:inhibitor complexes” (Bristol-Myers Squibb Company, priority 1999, dated 2004).
# Square brackets hold non-standard residues; d marks the D form. Cha = N[C@@H](CC1CCCCC1)C(=O)O
# Biological target: HCV protease (Hepatitis C virus genotype 1a, UniProt P26664)
# Conditions: Ingallinella et al., Biochemistry 37, 8906-8914 (1998)
# Sequence of HCV protease (P26664 1027-1206 limits assumed, other chains not shown): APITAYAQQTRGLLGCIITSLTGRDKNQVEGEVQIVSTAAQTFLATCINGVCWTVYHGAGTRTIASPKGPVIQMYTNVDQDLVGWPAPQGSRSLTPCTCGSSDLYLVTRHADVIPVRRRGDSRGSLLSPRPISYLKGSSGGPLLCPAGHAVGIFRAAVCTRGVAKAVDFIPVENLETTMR
substance,measurement,value
Ac-D[dE]LI[Cha]C-OH,IC50,15 nM
